# Tests used:
# [1] = system: incident cancers in post-myocardial infarction patients with hsCRP ≥2 mg/L; test: CANTOS trial: incident cancers, cancer mortality, canakinumab vs placebo; assay type: in vivo, human
# [2] = system: vasculature in trabecular bone; test: Blocking IL-1β signalling: blood vessels in the bone microenvironment of mice; assay type: in vivo
# Experimental: Vasculature was visualised following CD34 and endomucin immunohistochemistry and the concentration of vascular endothelial growth factor (VEGF) and endothelin-1 in serum and/or bone marrow was determined by ELISA. Effects on bone volume were measured by Micro computed tomography (uCT).
# Tumor cells, serum, and bone were subsequently resected for downstream analysis.
# [3] = system: post-myocardial infarction patients with elevated hsCRP
substance,measurement,setting,value
"canakinumab: high-affinity, fully human monoclonal antibody of the IgG1/k to interleukin-1β; INN number 8836","Genitourinary: Ovarian, incidence rate (number)",[1]; 300 mg SC q 3 months,0 per 100 person years
same,"Genitourinary: Prostate, incidence rate (number)",[1]; 300 mg SC q 3 months,0.17(15) per 100 person years
same,"Genitourinary: Testicular, incidence rate (number)",[1]; 300 mg SC q 3 months,0 per 100 person years
same,"Hematopoetic: Leukemia, incidence rate (number)",[1]; 300 mg SC q 3 months,0.01(1) per 100 person years
same,"Hematopoetic: Lymphoma, incidence rate (number)",[1]; 300 mg SC q 3 months,0.07(6) per 100 person years
same,"Hematopoetic: Multiple myeloma, incidence rate (number)",[1]; 300 mg SC q 3 months,0.02(2) per 100 person years
same,"Kidney, incidence rate (number)",[1]; 300 mg SC q 3 months,0.07(6) per 100 person years
same,"Liver, incidence rate (number)",[1]; 300 mg SC q 3 months,0.03(3) per 100 person years
same,"Lung Cancers: Adenocarcinoma or poorly differentiated large cell carcinoma or unspecified, incidence rate (number)",[1]; 300 mg SC q 3 months,0.12 per 100 person years
same,"Lung Cancers: Pleural cancer, incidence rate (number)",[1]; 300 mg SC q 3 months,0 per 100 person years
same,"Lung Cancers: Small cell lung cancer, incidence rate (number)",[1]; 300 mg SC q 3 months,0.01 (1) per 100 person years
same,"Lung Cancers: Squamous cell lung carcinoma, incidence rate (number)",[1]; 300 mg SC q 3 months,0.03 (3) per 100 person years
same,"Other cancer sites: Other, incidence rate (number)",[1]; 300 mg SC q 3 months,0.02(2) per 100 person years
same,"Sarcoma / Bone, incidence rate (number)",[1]; 300 mg SC q 3 months,0.01(1) per 100 person years
same,"Skin: Basal cell carcinoma, incidence rate (number)",[1]; 300 mg SC q 3 months,0.21(18) per 100 person years
same,"Skin: Melanoma, incidence rate (number)",[1]; 300 mg SC q 3 months,0.06(5) per 100 person years
same,"Skin: Other, incidence rate (number)",[1]; 300 mg SC q 3 months,0.02(2) per 100 person years
same,"Skin: Squamous cell skin cancer, incidence rate (number)",[1]; 300 mg SC q 3 months,0.27(23) per 100 person years
same,"Lung Cancers: Adenocarcinoma or poorly differentiated large cell carcinoma or unspecified, incidence rate (number)","[1]; 300 mg SC q 3 months, listed as Canakinumab",0.12 (10) per 100 person years
same,total cancer mortality,"[1]; 300 mg SC, vs placebo",fell by half
same,"Breast, incidence rate (number)",[1]; All Doses,0.06(16) per 100 person years
same,"Central Nervous System, incidence rate (number)",[1]; All Doses,0.04(10) per 100 person years
same,"Endocrine: Adrenal, incidence rate (number)",[1]; All Doses,0.01(2) per 100 person years
same,"Endocrine: Thyroid, incidence rate (number)",[1]; All Doses,0.02(4) per 100 person years
same,"Gastrointenstinal: Appendiceal, incidence rate (number)",[1]; All Doses,0.00(1) per 100 person years
same,"Gastrointenstinal: Biliary, incidence rate (number)",[1]; All Doses,0.02(5) per 100 person years
same,"Gastrointenstinal: Colorectal, incidence rate (number)",[1]; All Doses,0.21(54) per 100 person years
same,"Gastrointenstinal: Esophageal, incidence rate (number)",[1]; All Doses,0.06(16) per 100 person years
same,"Gastrointenstinal: Gastric, incidence rate (number)",[1]; All Doses,0.04(10) per 100 person years
same,"Gastrointenstinal: Oral cavity/tongue, incidence rate (number)",[1]; All Doses,0.03(8) per 100 person years
same,"Gastrointenstinal: Pancreatic, incidence rate (number)",[1]; All Doses,0.05(13) per 100 person years
same,"Genitourinary: Bladder, incidence rate (number)",[1]; All Doses,0.10(26) per 100 person years
same,"Genitourinary: Cervical, incidence rate (number)",[1]; All Doses,0.00(1) per 100 person years
same,"Genitourinary: Endometrial/Uterine, incidence rate (number)",[1]; All Doses,0.02(5) per 100 person years
same,"Genitourinary: Ovarian, incidence rate (number)",[1]; All Doses,0.00(1) per 100 person years
same,"Genitourinary: Prostate, incidence rate (number)",[1]; All Doses,0.17(44) per 100 person years
same,"Genitourinary: Testicular, incidence rate (number)",[1]; All Doses,0.00(1) per 100 person years
same,"Hematopoetic: Leukemia, incidence rate (number)",[1]; All Doses,0.02(4) per 100 person years
same,"Hematopoetic: Lymphoma, incidence rate (number)",[1]; All Doses,0.05(13) per 100 person years
same,"Hematopoetic: Multiple myeloma, incidence rate (number)",[1]; All Doses,0.01(2) per 100 person years
same,"Kidney, incidence rate (number)",[1]; All Doses,0.09(22) per 100 person years
same,"Liver, incidence rate (number)",[1]; All Doses,0.04(11) per 100 person years
same,"Lung Cancers: Adenocarcinoma or poorly differentiated large cell carcinoma or unspecified, incidence rate (number)",[1]; All Doses,0.23 (59) per 100 person years
same,"Lung Cancers: Pleural cancer, incidence rate (number)",[1]; All Doses,0 per 100 person years
same,"Lung Cancers: Small cell lung cancer, incidence rate (number)",[1]; All Doses,0.01 (3) per 100 person years
same,"Lung Cancers: Squamous cell lung carcinoma, incidence rate (number)",[1]; All Doses,0.02 (6) per 100 person years
same,"Other cancer sites: Other, incidence rate (number)",[1]; All Doses,0.05(13) per 100 person years
same,"Sarcoma / Bone, incidence rate (number)",[1]; All Doses,0.01(2) per 100 person years
same,"Skin: Basal cell carcinoma, incidence rate (number)",[1]; All Doses,0.26(65) per 100 person years
same,"Skin: Melanoma, incidence rate (number)",[1]; All Doses,0.06(16) per 100 person years
same,"Skin: Other, incidence rate (number)",[1]; All Doses,0.03(7) per 100 person years
same,"Skin: Squamous cell skin cancer, incidence rate (number)",[1]; All Doses,0.17(44) per 100 person years
same,share of all cancers that were lung cancers,[1]; among those assigned to canakinumab (placebo 26.0%),16%
same,share of cancer deaths that were lung cancers,[1]; among those assigned to canakinumab (placebo 47%),34%
same,length of new blood vessels,"[2]; 24 hours Ilaris, control 0.09 mm",0.06 mm
same,endothelin 1 and VEGF in the bone marrow (ELISA),[2]; compared with control,reduced concentrations
same,reduction in VEGF concentration,[2]; mice treated for 96 hours,46%
same,reduction in endothelin-1 concentration,[2]; mice treated for 96 hours,47%
same,average length of CD34^+ blood vessels in trabecular bone,[2]; p < 0.01 vs control,reduced the average length of CD34^+ blood vessels
same,"all-cause mortality, HR",[3]; canakinumab groups vs placebo,0.94
same,"non-cardiovascular mortality, HR",[3]; canakinumab groups vs placebo,0.97
same,Anemia (AE reports),[3]; in vivo,275 (1.11)
same,Erythrocytes (at 12 months): High (>6.8),[3]; in vivo,4 (0.07) N (%)
same,Erythrocytes (at 12 months): Low (<3.3),[3]; in vivo,19 ( 0.32) N (%)
same,Erythrocytes (at 12 months): Normal (3.3-6.8),[3]; in vivo,6002 (99.6) N (%)
same,"Leucocytes (at 12 months): High (>15,000)",[3]; in vivo,20 (0.33) N (%)
same,Leucocytes (at 12 months): Low (<3000),[3]; in vivo,27 (0.45) N (%)
same,Leucocytes (at 12 months): Normal (3000-<15000),[3]; in vivo,5978 (99.2) N (%)
same,Leukopenia (AE reports),[3]; in vivo,100 (0.40)
same,Neutropenia (AE reports),[3]; in vivo,25 (0.10)
same,Neutrophils (at 12 months): Grade 1 (1500-<LLN),[3]; in vivo,14 (0.24) N (%)
same,Neutrophils (at 12 months): Grade 2 (1000-<1500),[3]; in vivo,28 (0.47) N (%)
same,Neutrophils (at 12 months): Grade 3 (500-<1000),[3]; in vivo,5 (0.08) N (%)
same,Neutrophils (at 12 months): Grade 4 (<500),[3]; in vivo,0 (0.00) N (%)
same,Neutrophils (at 12 months): Normal N (%),[3]; in vivo,5891 (99.2) N (%)
same,"Platelets (at 12 months): Grade 1 (75,000-<LLN)",[3]; in vivo,782 (13.0) N (%)
same,"Platelets (at 12 months): Grade 2 (50,000-<75,000)",[3]; in vivo,10 (0.17) N (%)
same,"Platelets (at 12 months): Grade 3 (25,000-<50,000)",[3]; in vivo,4 (0.07) N (%)
same,"Platelets (at 12 months): Grade 4 (<25,000)",[3]; in vivo,0 (0.00) N (%)
same,Platelets (at 12 months): Normal N (%),[3]; in vivo,5216 (86.8) N (%)
same,Thrombocytopenia (AE reports),[3]; in vivo,150 (0.60)
same,Serious tuberculosis infections,[3]; similar rates in canakinumab and placebo treated groups,0.06%
